This is an account of results in US20260001928A1 (CORTERIA PHARMACEUTICALS, priority 2022, published 2026).

For the assay, the system named is human LAD2 cells. In kind it is cell-based. The method, boiled down:
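Mast cell degranulation: cells exposed to peptides for 30 min at final concentrations from 50, 100 or 300 down to 0.1 or 0.001 μM, with 0.5% DMSO where used, in biological duplicates. β-hexosaminidase release was read with a fluorogenic 4-methylumbelliferyl substrate as supernatant/(supernatant + Triton-lysed pellet) × 100. EC50 came from a 4-parameter sigmoidal fit.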

*1 amine or outer side, *2 acyl side, *3 side chain or, on linkers, in order; H or OH if unused. Where a SMILES comes first, the peptide text is derived from it. Side-chain parts run from the residue outwards. [ ]: non-standard residue; d: D form. The star is where a group is joined. C20 diacid = O=C(O)CCCCCCCCCCCCCCCCCCC(=O)*; γGlu = O=C(O)[C@H](CCC(=O)[*:2])N[*:1]; NMeI = CC[C@H](C)[C@H](NC)C(=O)O; Decanoyl = CCCCCCCCCC(=O)*; Pentanoyl = CCCCC(=O)*; AEEA = NCCOCCOCC(=O)O; Aib = CC(C)(N)C(=O)O Where only a bound is given, the exact number is not on record here.

`CCCCC(=O)N[C@H](C(=O)N[C@@H](CC(C)C)C(=O)N[C@@H](CO)C(=O)N[C@@H](CC(C)C)C(=O)N[C@@H](CC(=O)O)C(=O)N[C@@H](C(=O)N1CCC[C@H]1C(=O)N[C@H](C(=O)N[C@@H](CCCCN)C(=O)N[C@@H](CC(C)C)C(=O)N[C@@H](CCCCNC(=O)CC[C@H](NC(=O)CCCCCCCCCCCCCCCCCCC(=O)O)C(=O)O)C(=O)N[C@@H](CCCCN)C(=O)N[C@H](C(=O)N[C@@H](CC(C)C)C(=O)N[C@@H](CC(C)C)C(=O)N[C@@H](CCC(=O)O)C(=O)N[C@@H](CCC(N)=O)C(=O)N[C@@H](CCC(=O)O)C(=O)N[C@@H](CCCCN)C(=O)N[C@@H](CCC(N)=O)C(=O)N[C@@H](CCCCN)C(=O)N[C@@H](CCCCN)C(=O)N[C@@H](CCC(N)=O)C(=O)N[C@@H](CCCNC(=N)N)C(=O)N[C@@H](CCC(=O)O)C(=O)N[C@@H](CCC(N)=O)C(=O)N[C@@H](C)C(=O)N[C@@H](CCC(=O)O)C(=O)N[C@H](C(=O)N[C@@H](CC(N)=O)C(=O)NC(C)(C)C(=O)N[C@@H](CCC(N)=O)C(=O)N[C@H](C(=O)N[C@@H](CC(C)C)C(=O)N[C@@H](C)C(=O)N[C@@H](CCC(N)=O)C(=O)N[C@H](C(N)=O)C(C)C)[C@@H](C)CC)[C@@H](C)O)[C@@H](C)CC)[C@@H](C)CC)C(C)C)C(C)C` [Cmpd 219] (Pentanoyl-VLSLD[dV]PIKLK([γGlu-C20 diacid])KILLEQEKQKKQREQAETN[Aib]QILAQV-NH2) registered an EC50 of 88.2 µM.
Compound `CCCCCCCCCC(=O)N[C@H](C(=O)N[C@@H](CC(C)C)C(=O)N[C@@H](CO)C(=O)N[C@@H](CC(C)C)C(=O)N[C@@H](CC(=O)O)C(=O)N[C@@H](C(=O)N1CCC[C@H]1C(=O)N[C@H](C(=O)N[C@@H](CCCCN)C(=O)N[C@@H](CC(C)C)C(=O)N[C@@H](CCCCNC(=O)CC[C@H](NC(=O)CCCCCCCCCCCCCCCCCCC(=O)O)C(=O)O)C(=O)N[C@@H](CCCCN)C(=O)N[C@H](C(=O)N[C@@H](CC(C)C)C(=O)N[C@@H](CC(C)C)C(=O)N[C@@H](CCC(=O)O)C(=O)N[C@@H](CCC(N)=O)C(=O)N[C@@H](CCC(=O)O)C(=O)N[C@@H](CCCCN)C(=O)N[C@@H](CCC(N)=O)C(=O)N[C@@H](CCCCN)C(=O)N[C@@H](CCCCN)C(=O)N[C@@H](CCC(N)=O)C(=O)N[C@@H](CCCNC(=N)N)C(=O)N[C@@H](CCC(=O)O)C(=O)N[C@@H](CCC(N)=O)C(=O)N[C@@H](C)C(=O)N[C@@H](CCC(=O)O)C(=O)N[C@H](C(=O)N[C@@H](CC(N)=O)C(=O)NC(C)(C)C(=O)N[C@@H](CCC(N)=O)C(=O)N[C@H](C(=O)N[C@@H](CC(C)C)C(=O)N[C@@H](C)C(=O)N[C@@H](CCC(N)=O)C(=O)N[C@H](C(N)=O)C(C)C)[C@@H](C)CC)[C@@H](C)O)[C@@H](C)CC)[C@@H](C)CC)C(C)C)C(C)C` [Cmpd 223] (Decanoyl-VLSLD[dV]PIKLK([γGlu-C20 diacid])KILLEQEKQKKQREQAETN[Aib]QILAQV-NH2) gave an EC50 of more than 300 µM.
Under `CC[C@H](C)[C@H](NC(C)=O)C(=O)N[C@H](C(=O)N[C@@H](CC(C)C)C(=O)N[C@@H](CO)C(=O)N[C@@H](CC(C)C)C(=O)N[C@@H](CC(=O)O)C(=O)N[C@@H](C(=O)N1CCC[C@H]1C(=O)N[C@H](C(=O)N[C@@H](CCCCN)C(=O)N[C@@H](CC(C)C)C(=O)N[C@@H](CCCCNC(=O)COCCOCCNC(=O)CC[C@H](NC(=O)CCCCCCCCCCCCCCCCCCC(=O)O)C(=O)O)C(=O)N[C@@H](CCCCN)C(=O)N[C@H](C(=O)N[C@@H](CC(C)C)C(=O)N[C@@H](CC(C)C)C(=O)N[C@@H](CCC(=O)O)C(=O)N[C@@H](CCC(N)=O)C(=O)N[C@@H](CCC(=O)O)C(=O)N[C@@H](CCCCN)C(=O)N[C@@H](CCC(N)=O)C(=O)N[C@@H](CCCCN)C(=O)N[C@@H](CCC(=O)O)C(=O)N[C@@H](CCC(N)=O)C(=O)N[C@@H](CCCNC(=N)N)C(=O)N[C@@H](CCC(=O)O)C(=O)N[C@@H](CCC(N)=O)C(=O)N[C@@H](C)C(=O)N[C@@H](CCC(=O)O)C(=O)N[C@H](C(=O)N[C@@H](CC(N)=O)C(=O)NC(C)(C)C(=O)N[C@@H](CCC(N)=O)C(=O)N[C@H](C(=O)N[C@@H](CC(C)C)C(=O)N[C@@H](C)C(=O)N[C@@H](CCC(N)=O)C(=O)N[C@H](C(N)=O)C(C)C)[C@@H](C)CC)[C@@H](C)O)[C@@H](C)CC)[C@@H](C)CC)C(C)C)C(C)C` [Cmpd 231] (Ac-IVLSLD[dV]PIKLK([AEEA-γGlu-C20 diacid])KILLEQEKQKEQREQAETN[Aib]QILAQV-NH2) stands 47.5 µM; under `CC[C@H](C)[C@H](NC)C(=O)N[C@H](C(=O)N[C@@H](CC(C)C)C(=O)N[C@@H](CO)C(=O)N[C@@H](CC(C)C)C(=O)N[C@@H](CC(=O)O)C(=O)N[C@@H](C(=O)N1CCC[C@H]1C(=O)N[C@H](C(=O)N[C@@H](CCCCN)C(=O)N[C@@H](CC(C)C)C(=O)N[C@@H](CCCCNC(=O)COCCOCCNC(=O)CC[C@H](NC(=O)CCCCCCCCCCCCCCCCCCC(=O)O)C(=O)O)C(=O)N[C@@H](CCCCN)C(=O)N[C@H](C(=O)N[C@@H](CC(C)C)C(=O)N[C@@H](CC(C)C)C(=O)N[C@@H](CCC(=O)O)C(=O)N[C@@H](CCC(N)=O)C(=O)N[C@@H](CCC(=O)O)C(=O)N[C@@H](CCCCN)C(=O)N[C@@H](CCC(N)=O)C(=O)N[C@@H](CCCCN)C(=O)N[C@@H](CCC(=O)O)C(=O)N[C@@H](CCC(N)=O)C(=O)N[C@@H](CCCNC(=N)N)C(=O)N[C@@H](CCC(=O)O)C(=O)N[C@@H](CCC(N)=O)C(=O)N[C@@H](C)C(=O)N[C@@H](CCC(=O)O)C(=O)N[C@H](C(=O)N[C@@H](CC(N)=O)C(=O)NC(C)(C)C(=O)N[C@@H](CCC(N)=O)C(=O)N[C@H](C(=O)N[C@@H](CC(C)C)C(=O)N[C@@H](C)C(=O)N[C@@H](CCC(N)=O)C(=O)N[C@H](C(N)=O)C(C)C)[C@@H](C)CC)[C@@H](C)O)[C@@H](C)CC)[C@@H](C)CC)C(C)C)C(C)C` [Cmpd 233] (H-[NMeI]VLSLD[dV]PIKLK([AEEA-γGlu-C20 diacid])KILLEQEKQKEQREQAETN[Aib]QILAQV-NH2), more than 300 µM.
The result for `CC[C@H](C)[C@H](NC)C(=O)N[C@H](C(=O)N[C@@H](CC(C)C)C(=O)N[C@@H](CO)C(=O)N[C@@H](CC(C)C)C(=O)N[C@@H](CC(=O)O)C(=O)N[C@@H](C(=O)N1CCC[C@H]1C(=O)N[C@H](C(=O)N[C@@H](CCCCN)C(=O)N[C@@H](CC(C)C)C(=O)N[C@@H](CCCCNC(=O)COCCOCCNC(=O)CC[C@H](NC(=O)CCCCCCCCCCCCCCCCCCC(=O)O)C(=O)O)C(=O)N[C@@H](CCCCN)C(=O)N[C@H](C(=O)N[C@@H](CC(C)C)C(=O)N[C@@H](CC(C)C)C(=O)N[C@@H](CCC(=O)O)C(=O)N[C@@H](CCC(N)=O)C(=O)N[C@@H](CCC(=O)O)C(=O)N[C@@H](CCCCN)C(=O)N[C@@H](CCC(N)=O)C(=O)N[C@@H](CCCCN)C(=O)NC(C)(C)C(=O)N[C@@H](CCC(N)=O)C(=O)N[C@@H](CCCNC(=N)N)C(=O)N[C@@H](CCC(=O)O)C(=O)N[C@@H](CCC(N)=O)C(=O)N[C@@H](C)C(=O)N[C@@H](CCC(=O)O)C(=O)N[C@H](C(=O)N[C@@H](CC(N)=O)C(=O)NC(C)(C)C(=O)N[C@@H](CCC(N)=O)C(=O)N[C@H](C(=O)N[C@@H](CC(C)C)C(=O)N[C@@H](C)C(=O)N[C@@H](CCC(N)=O)C(=O)N[C@H](C(N)=O)C(C)C)[C@@H](C)CC)[C@@H](C)O)[C@@H](C)CC)[C@@H](C)CC)C(C)C)C(C)C` [Cmpd 234] (H-[NMeI]VLSLD[dV]PIKLK([AEEA-γGlu-C20 diacid])KILLEQEKQK[Aib]QREQAETN[Aib]QILAQV-NH2) reads 49.2 µM.
Under `CC[C@H](C)[C@H](NC(C)=O)C(=O)N[C@H](C(=O)N[C@@H](CC(C)C)C(=O)N[C@@H](CO)C(=O)N[C@@H](CC(C)C)C(=O)N[C@@H](CC(=O)O)C(=O)N[C@@H](C(=O)N1CCC[C@H]1C(=O)N[C@H](C(=O)N[C@@H](CCCCN)C(=O)N[C@@H](CC(C)C)C(=O)N[C@@H](CCCCNC(=O)COCCOCCNC(=O)COCCOCCNC(=O)CC[C@H](NC(=O)CCCCCCCCCCCCCCCCCCC(=O)O)C(=O)O)C(=O)N[C@@H](CCCCN)C(=O)N[C@H](C(=O)N[C@@H](CC(C)C)C(=O)N[C@@H](CC(C)C)C(=O)N[C@@H](CCC(=O)O)C(=O)N[C@@H](CCC(N)=O)C(=O)N[C@@H](CCC(=O)O)C(=O)N[C@@H](CCCCN)C(=O)N[C@@H](CCC(N)=O)C(=O)N[C@@H](CCCCN)C(=O)N[C@@H](CCC(=O)O)C(=O)N[C@@H](CCC(N)=O)C(=O)N[C@@H](CCCNC(=N)N)C(=O)N[C@@H](CCC(=O)O)C(=O)N[C@@H](CCC(N)=O)C(=O)N[C@@H](C)C(=O)N[C@@H](CCC(=O)O)C(=O)N[C@H](C(=O)N[C@@H](CC(N)=O)C(=O)NC(C)(C)C(=O)N[C@@H](CCC(N)=O)C(=O)N[C@H](C(=O)N[C@@H](CC(C)C)C(=O)N[C@@H](C)C(=O)N[C@@H](CCC(N)=O)C(=O)N[C@H](C(N)=O)C(C)C)[C@@H](C)CC)[C@@H](C)O)[C@@H](C)CC)[C@@H](C)CC)C(C)C)C(C)C` [Cmpd 236] (Ac-IVLSLD[dV]PIKLK([AEEA-AEEA-γGlu-C20 diacid])KILLEQEKQKEQREQAETN[Aib]QILAQV-NH2) stands 74.1 µM; under `CC[C@H](C)[C@H](NC)C(=O)N[C@H](C(=O)N[C@@H](CC(C)C)C(=O)N[C@@H](CO)C(=O)N[C@@H](CC(C)C)C(=O)N[C@@H](CC(=O)O)C(=O)N[C@@H](C(=O)N1CCC[C@H]1C(=O)N[C@H](C(=O)N[C@@H](CCCCN)C(=O)N[C@@H](CC(C)C)C(=O)N[C@@H](CCCCNC(=O)COCCOCCNC(=O)COCCOCCNC(=O)CC[C@H](NC(=O)CCCCCCCCCCCCCCCCCCC(=O)O)C(=O)O)C(=O)N[C@@H](CCCCN)C(=O)N[C@H](C(=O)N[C@@H](CC(C)C)C(=O)N[C@@H](CC(C)C)C(=O)N[C@@H](CCC(=O)O)C(=O)N[C@@H](CCC(N)=O)C(=O)N[C@@H](CCC(=O)O)C(=O)N[C@@H](CCCCN)C(=O)N[C@@H](CCC(N)=O)C(=O)N[C@@H](CCCCN)C(=O)N[C@@H](CCC(=O)O)C(=O)N[C@@H](CCC(N)=O)C(=O)N[C@@H](CCCNC(=N)N)C(=O)N[C@@H](CCC(=O)O)C(=O)N[C@@H](CCC(N)=O)C(=O)N[C@@H](C)C(=O)N[C@@H](CCC(=O)O)C(=O)N[C@H](C(=O)N[C@@H](CC(N)=O)C(=O)NC(C)(C)C(=O)N[C@@H](CCC(N)=O)C(=O)N[C@H](C(=O)N[C@@H](CC(C)C)C(=O)N[C@@H](C)C(=O)N[C@@H](CCC(N)=O)C(=O)N[C@H](C(N)=O)C(C)C)[C@@H](C)CC)[C@@H](C)O)[C@@H](C)CC)[C@@H](C)CC)C(C)C)C(C)C` [Cmpd 237] (H-[NMeI]VLSLD[dV]PIKLK([AEEA-AEEA-γGlu-C20 diacid])KILLEQEKQKEQREQAETN[Aib]QILAQV-NH2), more than 300 µM.

By EC50 is commonly meant the midpoint of the concentration-response curve. Read a high EC50 as lower potency in that assay.
